Earlier results as cited in patent US20230414620A1, “TOPICAL RUXOLITINIB FOR TREATING LICHEN PLANUS” (Incyte Corporation, priority 2020, published 2023).

How the values were obtained:
[1] = test system: steroid refractory graft versus host disease (GVHD); conditions: systemic JAK1, 2 inhibition
[2] = test system: refractory dermatomyositis (DM); conditions: case report

N#CC[C@H](C1CCCC1)n1cc(-c2ncnc3[nH]ccc23)cn1 [ruxolitinib, (R)-3-(4-(7H-pyrrolo[2,3-d]pyrimidin-4-yl)-1H-pyrazol-1-yl)-3-cyclopentylpropanenitrile]
efficacy in steroid refractory GVHD [1]: highly effective
response in refractory dermatomyositis [2]: exceptional responder
